Test results reported in ChEMBL document CHEMBL4507260 (2021).

Columns and labels:
Settings in all cases: Compound concentration 1000.0 nM
[1] = system: Tyrosine-protein kinase ABL1 (Homo sapiens), P00519 [E255K]
[2] = system: Tyrosine-protein kinase ABL1 (Homo sapiens), P00519 [Y253F]
[3] = system: ALK tyrosine kinase receptor (Homo sapiens), Q9UM73 [L1196M]
[4] = molecular target: Ankyrin repeat and protein kinase domain-containing protein 1 (Homo sapiens) (UniProt Q8NFD2)
[5] = molecular target: Cyclin-dependent kinase 13 (Homo sapiens) (UniProt Q14004)
[6] = molecular target: Cyclin-dependent kinase 2 (Homo sapiens) (UniProt P24941)
[7] = molecular target: Cyclin-dependent kinase-like 3 (Homo sapiens) (UniProt Q8IVW4)
[8] = molecular target: Dual specificity tyrosine-phosphorylation-regulated kinase 1B (Homo sapiens) (UniProt Q9Y463)
[9] = molecular target: Ephrin type-A receptor 5 (Homo sapiens) (UniProt P54756)
[10] = molecular target: Fibroblast growth factor receptor 3 (Homo sapiens) (UniProt P22607)
[11] = system: Receptor-type tyrosine-protein kinase FLT3 (Homo sapiens), P36888 [D835V]
[12] = system: eIF-2-alpha kinase GCN2 (Homo sapiens), Q9P2K8 [S808G]
[13] = molecular target: Inhibitor of nuclear factor kappa-B kinase subunit alpha (Homo sapiens) (UniProt O15111)
[14] = molecular target: Insulin receptor (Homo sapiens) (UniProt P06213)
[15] = system: Mast/stem cell growth factor receptor Kit (Homo sapiens), P10721 [D816V]
[16] = molecular target: LIM domain kinase 1 (Homo sapiens) (UniProt P53667)
[17] = molecular target: Leucine-rich repeat serine/threonine-protein kinase 2 (Homo sapiens) (UniProt Q5S007)
[18] = molecular target: Mitogen-activated protein kinase kinase kinase 4 (Homo sapiens) (UniProt Q9Y6R4)
[19] = molecular target: Dual specificity mitogen-activated protein kinase kinase 2 (Homo sapiens) (UniProt P36507)
[20] = molecular target: Dual specificity mitogen-activated protein kinase kinase 4 (Homo sapiens) (UniProt P45985)
[21] = molecular target: Mitogen-activated protein kinase kinase kinase 10 (Homo sapiens) (UniProt Q02779)
[22] = molecular target: Mitogen-activated protein kinase kinase kinase 11 (Homo sapiens) (UniProt Q16584)
[23] = molecular target: Serine/threonine-protein kinase 3 (Homo sapiens) (UniProt Q13188)
[24] = molecular target: Serine/threonine-protein kinase Nek10 (Homo sapiens) (UniProt Q6ZWH5)
[25] = molecular target: Serine/threonine-protein kinase PAK 3 (Homo sapiens) (UniProt O75914)
[26] = molecular target: Serine/threonine-protein kinase PAK 4 (Homo sapiens) (UniProt O96013)
[27] = molecular target: Cyclin-dependent kinase 16 (Homo sapiens) (UniProt Q00536)
[28] = molecular target: Phosphorylase b kinase gamma catalytic chain, skeletal muscle/heart isoform (Homo sapiens) (UniProt Q16816)
[29] = system: Phosphatidylinositol 4,5-bisphosphate 3-kinase catalytic subunit alpha isoform (Homo sapiens), P42336 [M1043I]
[30] = molecular target: Phosphatidylinositol 4,5-bisphosphate 3-kinase catalytic subunit delta isoform (Homo sapiens) (UniProt O00329)
[31] = molecular target: Serine/threonine-protein kinase N2 (Homo sapiens) (UniProt Q16513)
[32] = molecular target: Receptor-interacting serine/threonine-protein kinase 2 (Homo sapiens) (UniProt O43353)
[33] = molecular target: Ribosomal protein S6 kinase alpha-4 (Homo sapiens) (UniProt O75676)
[34] = molecular target: NUAK family SNF1-like kinase 2 (Homo sapiens) (UniProt Q9H093)
[35] = molecular target: Proto-oncogene tyrosine-protein kinase Src (Homo sapiens) (UniProt P12931)
[36] = molecular target: Tyrosine-protein kinase SYK (Homo sapiens) (UniProt P43405)
[37] = molecular target: Serine/threonine-protein kinase TBK1 (Homo sapiens) (UniProt Q9UHD2)
[38] = molecular target: Tyrosine-protein kinase Tec (Homo sapiens) (UniProt P42680)
[39] = molecular target: TGF-beta receptor type-2 (Homo sapiens) (UniProt P37173)
[40] = molecular target: Tyrosine-protein kinase receptor Tie-1 (Homo sapiens) (UniProt P35590)
[41] = molecular target: High affinity nerve growth factor receptor (Homo sapiens) (UniProt P04629)
[42] = molecular target: BDNF/NT-3 growth factors receptor (Homo sapiens) (UniProt Q16620)
[43] = molecular target: Serine/threonine-protein kinase ULK3 (Homo sapiens) (UniProt Q6PHR2)
[44] = molecular target: Serine/threonine-protein kinase WNK2 (Homo sapiens) (UniProt Q9Y3S1)
[45] = molecular target: Tyrosine-protein kinase Yes (Homo sapiens) (UniProt P07947)

Measured: residual activity

Chain of Serine/threonine-protein kinase 3 (Homo sapiens) (Q13188 whole entry): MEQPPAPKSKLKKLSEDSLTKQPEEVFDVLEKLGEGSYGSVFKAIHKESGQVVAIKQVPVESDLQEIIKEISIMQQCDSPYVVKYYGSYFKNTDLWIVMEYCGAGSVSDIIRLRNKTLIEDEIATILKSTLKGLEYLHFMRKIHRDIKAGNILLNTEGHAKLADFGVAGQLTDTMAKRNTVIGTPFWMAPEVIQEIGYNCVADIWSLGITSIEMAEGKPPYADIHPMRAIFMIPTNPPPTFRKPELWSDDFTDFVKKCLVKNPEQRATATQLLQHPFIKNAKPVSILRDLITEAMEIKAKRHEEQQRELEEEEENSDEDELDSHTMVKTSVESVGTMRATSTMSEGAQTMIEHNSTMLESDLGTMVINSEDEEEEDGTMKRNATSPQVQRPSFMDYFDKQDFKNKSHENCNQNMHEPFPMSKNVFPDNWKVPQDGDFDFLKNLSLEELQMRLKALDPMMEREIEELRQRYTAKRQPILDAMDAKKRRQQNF
Chain of ALK tyrosine kinase receptor (Homo sapiens), Q9UM73 [L1196M] (Q9UM73 whole entry L1196M, looked up, the tested form may be a part): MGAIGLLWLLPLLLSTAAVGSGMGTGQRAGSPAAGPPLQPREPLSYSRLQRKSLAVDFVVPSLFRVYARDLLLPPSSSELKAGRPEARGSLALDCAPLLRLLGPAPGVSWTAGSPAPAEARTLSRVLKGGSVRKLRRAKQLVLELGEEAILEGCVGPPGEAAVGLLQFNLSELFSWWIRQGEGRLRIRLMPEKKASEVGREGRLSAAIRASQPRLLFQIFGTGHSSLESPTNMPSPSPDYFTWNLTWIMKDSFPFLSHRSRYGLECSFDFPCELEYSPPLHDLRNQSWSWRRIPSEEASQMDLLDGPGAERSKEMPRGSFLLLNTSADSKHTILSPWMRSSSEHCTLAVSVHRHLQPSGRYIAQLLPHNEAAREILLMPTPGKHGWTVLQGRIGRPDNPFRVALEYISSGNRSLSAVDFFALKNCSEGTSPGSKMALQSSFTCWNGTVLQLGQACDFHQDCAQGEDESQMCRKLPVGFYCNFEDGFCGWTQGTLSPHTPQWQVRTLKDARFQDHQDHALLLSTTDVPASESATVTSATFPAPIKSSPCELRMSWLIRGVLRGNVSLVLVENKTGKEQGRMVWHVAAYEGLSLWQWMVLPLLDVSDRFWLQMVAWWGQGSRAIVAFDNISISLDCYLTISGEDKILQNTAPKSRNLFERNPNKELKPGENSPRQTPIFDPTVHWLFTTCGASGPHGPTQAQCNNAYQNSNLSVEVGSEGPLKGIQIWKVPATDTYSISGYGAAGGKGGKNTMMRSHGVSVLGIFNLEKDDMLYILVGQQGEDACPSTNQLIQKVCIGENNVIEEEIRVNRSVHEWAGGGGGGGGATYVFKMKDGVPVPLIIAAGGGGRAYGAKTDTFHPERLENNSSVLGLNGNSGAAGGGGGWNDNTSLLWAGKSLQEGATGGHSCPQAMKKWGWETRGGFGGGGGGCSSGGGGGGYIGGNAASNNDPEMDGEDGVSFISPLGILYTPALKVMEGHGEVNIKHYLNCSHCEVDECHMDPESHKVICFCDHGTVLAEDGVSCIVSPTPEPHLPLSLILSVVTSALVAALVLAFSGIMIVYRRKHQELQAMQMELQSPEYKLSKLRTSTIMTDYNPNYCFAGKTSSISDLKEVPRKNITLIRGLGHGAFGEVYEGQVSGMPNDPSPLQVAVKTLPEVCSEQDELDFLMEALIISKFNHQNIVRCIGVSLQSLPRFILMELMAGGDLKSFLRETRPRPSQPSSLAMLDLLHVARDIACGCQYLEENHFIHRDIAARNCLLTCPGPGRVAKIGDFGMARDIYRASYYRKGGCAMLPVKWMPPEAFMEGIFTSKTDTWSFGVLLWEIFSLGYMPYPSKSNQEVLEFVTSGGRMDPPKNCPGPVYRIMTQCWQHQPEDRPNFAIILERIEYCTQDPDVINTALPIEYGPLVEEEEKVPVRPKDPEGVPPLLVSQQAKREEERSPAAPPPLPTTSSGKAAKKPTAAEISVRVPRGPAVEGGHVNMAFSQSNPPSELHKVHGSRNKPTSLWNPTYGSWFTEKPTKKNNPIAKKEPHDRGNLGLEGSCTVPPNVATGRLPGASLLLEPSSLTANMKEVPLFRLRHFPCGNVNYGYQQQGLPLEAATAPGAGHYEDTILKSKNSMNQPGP
Chain of Fibroblast growth factor receptor 3 (Homo sapiens) (P22607 23-806 limits assumed): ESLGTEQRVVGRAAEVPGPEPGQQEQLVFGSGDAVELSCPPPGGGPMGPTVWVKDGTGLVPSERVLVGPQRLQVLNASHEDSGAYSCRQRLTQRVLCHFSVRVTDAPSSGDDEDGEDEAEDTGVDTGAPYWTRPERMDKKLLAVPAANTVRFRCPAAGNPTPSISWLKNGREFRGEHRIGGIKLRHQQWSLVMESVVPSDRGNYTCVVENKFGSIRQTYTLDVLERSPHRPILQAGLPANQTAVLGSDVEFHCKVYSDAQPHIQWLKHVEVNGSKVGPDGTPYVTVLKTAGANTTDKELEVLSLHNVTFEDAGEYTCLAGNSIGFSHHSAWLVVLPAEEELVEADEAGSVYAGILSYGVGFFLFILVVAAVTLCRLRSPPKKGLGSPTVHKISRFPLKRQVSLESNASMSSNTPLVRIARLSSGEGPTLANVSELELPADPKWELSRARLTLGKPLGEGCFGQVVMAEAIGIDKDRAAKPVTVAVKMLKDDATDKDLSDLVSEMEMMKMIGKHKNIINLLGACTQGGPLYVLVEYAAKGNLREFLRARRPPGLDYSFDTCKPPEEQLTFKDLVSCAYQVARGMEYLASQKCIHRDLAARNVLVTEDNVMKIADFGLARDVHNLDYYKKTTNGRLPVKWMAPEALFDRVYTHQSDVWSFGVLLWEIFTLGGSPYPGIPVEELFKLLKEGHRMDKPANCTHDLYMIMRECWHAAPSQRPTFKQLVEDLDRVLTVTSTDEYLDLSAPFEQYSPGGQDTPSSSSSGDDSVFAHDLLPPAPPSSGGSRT
Chain of NUAK family SNF1-like kinase 2 (Homo sapiens) (Q9H093 whole entry): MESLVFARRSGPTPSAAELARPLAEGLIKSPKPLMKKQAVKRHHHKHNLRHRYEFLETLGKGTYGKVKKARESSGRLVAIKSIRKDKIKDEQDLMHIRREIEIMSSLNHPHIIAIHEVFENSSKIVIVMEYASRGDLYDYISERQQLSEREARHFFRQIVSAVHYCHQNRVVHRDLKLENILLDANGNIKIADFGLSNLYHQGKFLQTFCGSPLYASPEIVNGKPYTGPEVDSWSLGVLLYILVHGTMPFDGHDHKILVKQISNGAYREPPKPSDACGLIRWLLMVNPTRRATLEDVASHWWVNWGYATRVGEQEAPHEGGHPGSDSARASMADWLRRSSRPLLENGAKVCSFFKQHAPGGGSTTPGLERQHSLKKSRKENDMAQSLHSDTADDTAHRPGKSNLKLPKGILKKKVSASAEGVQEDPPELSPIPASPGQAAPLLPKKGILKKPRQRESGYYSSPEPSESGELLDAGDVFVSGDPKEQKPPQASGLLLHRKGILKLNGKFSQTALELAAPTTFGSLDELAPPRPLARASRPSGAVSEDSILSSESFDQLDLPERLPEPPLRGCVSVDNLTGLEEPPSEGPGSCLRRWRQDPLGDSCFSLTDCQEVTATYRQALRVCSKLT
Chain of TGF-beta receptor type-2 (Homo sapiens) (P37173 whole entry): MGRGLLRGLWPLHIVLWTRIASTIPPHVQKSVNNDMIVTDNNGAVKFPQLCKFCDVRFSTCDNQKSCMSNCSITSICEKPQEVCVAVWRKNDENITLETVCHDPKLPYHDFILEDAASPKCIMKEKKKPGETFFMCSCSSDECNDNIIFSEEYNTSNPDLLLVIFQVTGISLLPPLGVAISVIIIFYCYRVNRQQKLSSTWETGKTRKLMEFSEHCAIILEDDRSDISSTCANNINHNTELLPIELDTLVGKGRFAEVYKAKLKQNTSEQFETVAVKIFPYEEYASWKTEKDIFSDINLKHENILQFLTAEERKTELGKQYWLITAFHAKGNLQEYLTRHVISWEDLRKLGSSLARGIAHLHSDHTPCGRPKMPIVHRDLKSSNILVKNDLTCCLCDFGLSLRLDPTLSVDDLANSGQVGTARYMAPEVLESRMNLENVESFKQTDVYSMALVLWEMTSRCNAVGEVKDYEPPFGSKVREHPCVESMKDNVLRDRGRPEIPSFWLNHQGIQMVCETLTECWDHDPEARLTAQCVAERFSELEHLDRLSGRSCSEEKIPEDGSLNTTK
Chain of Phosphorylase b kinase gamma catalytic chain, skeletal muscle/heart isoform (Homo sapiens) (Q16816 whole entry, looked up, canonical isoform): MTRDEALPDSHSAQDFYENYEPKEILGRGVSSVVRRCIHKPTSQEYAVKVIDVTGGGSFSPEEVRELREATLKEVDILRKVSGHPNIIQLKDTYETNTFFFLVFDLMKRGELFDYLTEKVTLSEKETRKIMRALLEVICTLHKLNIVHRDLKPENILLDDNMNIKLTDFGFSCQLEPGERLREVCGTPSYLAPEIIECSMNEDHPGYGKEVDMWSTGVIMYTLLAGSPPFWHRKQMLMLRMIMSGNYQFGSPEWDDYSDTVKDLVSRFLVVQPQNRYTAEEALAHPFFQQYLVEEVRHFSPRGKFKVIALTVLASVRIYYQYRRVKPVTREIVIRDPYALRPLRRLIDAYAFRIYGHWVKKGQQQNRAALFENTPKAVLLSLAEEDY
Chain of Cyclin-dependent kinase 16 (Homo sapiens) (Q00536 whole entry, canonical isoform): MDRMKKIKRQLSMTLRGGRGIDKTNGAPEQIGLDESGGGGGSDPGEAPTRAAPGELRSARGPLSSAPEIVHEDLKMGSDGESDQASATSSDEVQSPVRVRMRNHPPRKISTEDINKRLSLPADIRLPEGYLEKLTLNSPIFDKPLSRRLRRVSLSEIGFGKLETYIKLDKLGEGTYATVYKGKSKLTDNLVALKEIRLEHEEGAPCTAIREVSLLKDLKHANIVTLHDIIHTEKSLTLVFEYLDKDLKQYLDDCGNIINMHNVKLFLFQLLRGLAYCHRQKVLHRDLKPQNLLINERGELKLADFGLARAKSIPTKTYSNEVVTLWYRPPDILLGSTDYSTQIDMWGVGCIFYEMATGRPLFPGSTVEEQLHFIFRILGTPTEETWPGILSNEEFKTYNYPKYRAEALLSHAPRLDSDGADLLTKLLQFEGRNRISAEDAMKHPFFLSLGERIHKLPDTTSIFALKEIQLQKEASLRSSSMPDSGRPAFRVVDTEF

CSc1cccnc1N1CCN(Cc2nc3ccccc3[nH]2)CC1 [A-769]
inactive: [1] 67% | [2] 76% | [3] 100% | [4] 92% | [5] 85% | [6] 95% | [7] 100% | [8] 91% | [9] 100% | [10] 100% | [11] 84% | [12] 100% | [13] 98% | [14] 85% | [15] 90% | [16] 100% | [17] 97% | [18] 100% | [19] 70% | [20] 89% | [21] 100% | [22] 100% | [23] 87% | [24] 78% | [25] 87% | [26] 100% | [27] 81% | [28] 96% | [29] 94% | [30] 100% | [31] 62% | [32] 100% | [33] 73% | [34] 100% | [35] 100% | [36] 100% | [37] 100% | [38] 90% | [39] 99% | [40] 100% | [41] 85% | [42] 100% | [43] 81% | [44] 100% | [45] 100%

c1ccc(N2CCN(Cc3nc4ccccc4[nH]3)CC2)nc1 [ABT-724]
inactive: [1] 100% | [2] 100% | [3] 97% | [4] 100% | [5] 100% | [6] 100% | [7] 100% | [8] 100% | [9] 100% | [10] 96% | [11] 88% | [12] 65% | [13] 100% | [14] 100% | [15] 100% | [16] 100% | [17] 99% | [18] 100% | [19] 100% | [20] 100% | [21] 93% | [22] 100% | [23] 100% | [24] 100% | [25] 100% | [26] 93% | [27] 100% | [28] 100% | [29] 87% | [30] 69% | [31] 100% | [32] 100% | [33] 100% | [34] 100% | [35] 93% | [36] 100% | [37] 77% | [38] 100% | [39] 88% | [40] 96% | [41] 100% | [42] 100% | [43] 100% | [44] 100% | [45] 100%
